# According to article PMC7784776 (ACS chemical biology, 2020):
# Values joined by “and” are separate entries in the source; they are usually repeats but may differ in a detail not shown here. Equal entries are not always repeated. Where two headings read alike, the source gives them in different places.
# Assays:
# B. subtilis PY79 = test: Minimum inhibitory concentration; type: cell-based; conditions: Bacillus subtilis
# PBP1a/1b = PBP1a/1b (Bacillus subtilis, UniProt P39793); test: Fluorescent whole cell β-lactam titration with Boc-FL readout, SDS-PAGE; type: cell-based
# Chain of PBP1a/1b (P39793 77-662): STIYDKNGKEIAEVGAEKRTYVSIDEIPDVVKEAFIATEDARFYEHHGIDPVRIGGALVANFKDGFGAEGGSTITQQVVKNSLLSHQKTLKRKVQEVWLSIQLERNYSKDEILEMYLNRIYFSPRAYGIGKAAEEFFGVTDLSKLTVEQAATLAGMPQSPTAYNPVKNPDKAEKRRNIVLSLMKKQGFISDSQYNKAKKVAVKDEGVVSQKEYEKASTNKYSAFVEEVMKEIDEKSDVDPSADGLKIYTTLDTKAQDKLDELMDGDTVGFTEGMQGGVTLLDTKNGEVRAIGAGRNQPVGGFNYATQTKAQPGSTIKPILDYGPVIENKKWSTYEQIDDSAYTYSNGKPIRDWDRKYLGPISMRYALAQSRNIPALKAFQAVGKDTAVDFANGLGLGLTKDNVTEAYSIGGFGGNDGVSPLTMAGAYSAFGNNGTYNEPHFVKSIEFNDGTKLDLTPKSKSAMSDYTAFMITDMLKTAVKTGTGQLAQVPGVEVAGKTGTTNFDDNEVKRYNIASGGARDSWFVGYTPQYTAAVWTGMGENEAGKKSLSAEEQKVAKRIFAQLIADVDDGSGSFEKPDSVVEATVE
# PBP2a = PBP2a (Bacillus subtilis, UniProt P54488); test: as above; type: cell-based
# Chain of PBP2a (P54488 whole entry): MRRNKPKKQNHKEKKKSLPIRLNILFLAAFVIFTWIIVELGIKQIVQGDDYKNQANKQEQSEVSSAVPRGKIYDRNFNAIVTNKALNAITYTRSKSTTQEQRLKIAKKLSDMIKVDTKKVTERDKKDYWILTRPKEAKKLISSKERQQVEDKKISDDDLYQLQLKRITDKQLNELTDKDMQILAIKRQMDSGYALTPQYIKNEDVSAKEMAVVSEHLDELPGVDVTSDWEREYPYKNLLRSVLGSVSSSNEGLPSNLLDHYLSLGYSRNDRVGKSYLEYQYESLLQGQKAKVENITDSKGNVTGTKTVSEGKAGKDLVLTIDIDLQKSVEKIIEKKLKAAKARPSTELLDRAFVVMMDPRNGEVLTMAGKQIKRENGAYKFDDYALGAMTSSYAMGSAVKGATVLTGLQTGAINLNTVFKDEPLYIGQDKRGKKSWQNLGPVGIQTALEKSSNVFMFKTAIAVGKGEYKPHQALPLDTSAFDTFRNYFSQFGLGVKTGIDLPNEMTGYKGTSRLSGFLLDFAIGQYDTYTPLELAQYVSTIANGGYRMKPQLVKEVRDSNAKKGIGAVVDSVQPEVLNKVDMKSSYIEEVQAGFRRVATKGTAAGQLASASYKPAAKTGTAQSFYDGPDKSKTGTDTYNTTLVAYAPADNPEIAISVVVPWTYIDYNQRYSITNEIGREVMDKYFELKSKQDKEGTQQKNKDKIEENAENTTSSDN
# PBP2b/H = PBP2b/H (Bacillus subtilis, UniProt Q07868); test: as above; type: cell-based; conditions: for inhibition of PBP2b at MIC: at growth inhibitory concentration, substantial inhibition (>50%) not the case
# Chain of PBP2b/H (Q07868 whole entry): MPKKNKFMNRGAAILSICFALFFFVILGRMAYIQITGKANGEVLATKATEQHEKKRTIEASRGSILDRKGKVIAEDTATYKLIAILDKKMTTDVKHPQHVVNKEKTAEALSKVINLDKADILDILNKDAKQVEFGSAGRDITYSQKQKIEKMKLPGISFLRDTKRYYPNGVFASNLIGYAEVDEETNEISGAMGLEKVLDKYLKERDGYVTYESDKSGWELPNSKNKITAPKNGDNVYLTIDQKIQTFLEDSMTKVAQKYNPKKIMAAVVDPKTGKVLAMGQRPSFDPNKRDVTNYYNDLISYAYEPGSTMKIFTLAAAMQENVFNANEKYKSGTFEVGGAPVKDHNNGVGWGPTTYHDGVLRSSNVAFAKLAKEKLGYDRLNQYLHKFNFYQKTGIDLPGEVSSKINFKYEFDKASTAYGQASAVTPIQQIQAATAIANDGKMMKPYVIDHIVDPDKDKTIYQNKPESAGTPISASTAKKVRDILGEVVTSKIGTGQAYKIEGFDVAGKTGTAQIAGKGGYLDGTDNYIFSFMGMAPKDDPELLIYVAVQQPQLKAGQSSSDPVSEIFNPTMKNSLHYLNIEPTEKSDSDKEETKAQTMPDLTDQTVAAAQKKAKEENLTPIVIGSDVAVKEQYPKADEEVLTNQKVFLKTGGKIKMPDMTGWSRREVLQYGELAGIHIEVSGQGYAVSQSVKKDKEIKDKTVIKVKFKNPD
# PBP3 [1] = target: T1, PBP3 (Bacillus subtilis, UniProt P42971); test: as above; type: cell-based
# T1 sequence (P42971 whole entry): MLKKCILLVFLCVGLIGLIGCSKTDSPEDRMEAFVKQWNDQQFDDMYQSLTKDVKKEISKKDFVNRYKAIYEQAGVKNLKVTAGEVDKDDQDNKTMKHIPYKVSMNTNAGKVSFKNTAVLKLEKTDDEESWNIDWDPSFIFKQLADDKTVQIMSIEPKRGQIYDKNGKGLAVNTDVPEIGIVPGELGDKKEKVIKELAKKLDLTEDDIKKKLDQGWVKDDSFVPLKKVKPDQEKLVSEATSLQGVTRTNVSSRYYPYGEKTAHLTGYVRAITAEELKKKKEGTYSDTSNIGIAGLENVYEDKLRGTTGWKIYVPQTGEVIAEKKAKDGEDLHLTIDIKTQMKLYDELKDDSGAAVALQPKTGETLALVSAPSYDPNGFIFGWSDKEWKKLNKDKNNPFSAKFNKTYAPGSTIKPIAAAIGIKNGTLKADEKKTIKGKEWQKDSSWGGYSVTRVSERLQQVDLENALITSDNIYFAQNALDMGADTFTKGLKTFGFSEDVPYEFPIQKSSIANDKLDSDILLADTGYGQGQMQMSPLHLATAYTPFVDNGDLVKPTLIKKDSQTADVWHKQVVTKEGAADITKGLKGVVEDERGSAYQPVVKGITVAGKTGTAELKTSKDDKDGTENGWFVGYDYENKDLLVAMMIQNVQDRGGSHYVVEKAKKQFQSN
# PBP4 = PBP4 (Bacillus subtilis, UniProt P40750); test: as above; type: cell-based
# Chain of PBP4 (P40750 22-624): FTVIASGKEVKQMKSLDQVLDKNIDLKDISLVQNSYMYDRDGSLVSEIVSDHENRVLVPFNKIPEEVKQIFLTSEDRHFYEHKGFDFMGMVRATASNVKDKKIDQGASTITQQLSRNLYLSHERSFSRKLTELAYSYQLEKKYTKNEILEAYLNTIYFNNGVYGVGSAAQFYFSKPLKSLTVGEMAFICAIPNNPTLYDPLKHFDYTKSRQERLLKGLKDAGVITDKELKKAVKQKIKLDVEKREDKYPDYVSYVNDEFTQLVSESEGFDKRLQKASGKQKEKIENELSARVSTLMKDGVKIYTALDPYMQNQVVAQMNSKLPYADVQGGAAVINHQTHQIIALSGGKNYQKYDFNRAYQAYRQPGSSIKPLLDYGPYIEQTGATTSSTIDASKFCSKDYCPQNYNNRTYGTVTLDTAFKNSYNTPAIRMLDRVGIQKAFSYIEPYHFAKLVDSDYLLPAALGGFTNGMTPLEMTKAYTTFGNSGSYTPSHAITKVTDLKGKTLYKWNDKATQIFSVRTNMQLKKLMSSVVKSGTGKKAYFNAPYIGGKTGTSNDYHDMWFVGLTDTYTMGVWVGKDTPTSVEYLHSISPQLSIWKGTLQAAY
# PBP5 = PBP5 (Bacillus subtilis, UniProt P08750); test: as above; type: cell-based
# Chain of PBP5 (P08750 32-443): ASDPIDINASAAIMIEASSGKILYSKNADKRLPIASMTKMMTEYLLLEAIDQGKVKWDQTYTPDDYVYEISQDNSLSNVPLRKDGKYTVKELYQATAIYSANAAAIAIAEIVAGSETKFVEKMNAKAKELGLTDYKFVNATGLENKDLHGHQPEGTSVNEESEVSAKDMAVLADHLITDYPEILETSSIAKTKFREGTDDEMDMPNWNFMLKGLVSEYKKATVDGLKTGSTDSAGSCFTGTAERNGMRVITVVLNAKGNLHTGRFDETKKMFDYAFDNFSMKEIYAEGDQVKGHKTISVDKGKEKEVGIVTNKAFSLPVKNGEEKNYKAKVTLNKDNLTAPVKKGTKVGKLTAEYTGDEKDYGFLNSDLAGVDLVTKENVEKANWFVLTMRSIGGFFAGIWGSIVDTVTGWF
# B. subtilis PBPs [2] = test: PBP inhibition/selectivity profile across all detected PBPs; type: cell-based, Bacillus subtilis; conditions: at MIC
# B. subtilis PBPs [3] = test: β-Lactam titration of DK694; type: cell-based, Bacillus subtilis; conditions: DK694 (ΔpbpH) cells
# B. subtilis PBPs [4] = test: PBP activity profile after growth with sub-MIC meropenem; type: cell-based, Bacillus subtilis; conditions: 0.01 μg/mL, 2 h
# PBP3 [5] = target: T1, PBP3; test: Fluorescence imaging of PBP3 activity with MEM-BODIPY FL in live DK654; type: cell-based; conditions: pretreatment 10 μg/mL
# [6] = IC50 PBP3, B. subtilis PY79 whole cells, average of two experiments
# [7] = read-out: IC50 PBP2a, B. subtilis PY79 whole cells, average of two experiments
Compound,MIC (B. subtilis PY79) [µg/mL],IC50 (PBP1a/1b) [µM],IC50 (PBP2a) [µM],IC50 (PBP2b/H) [µM],inhibition of PBP2b at MIC (PBP2b/H) [%],IC50 (PBP3 [1]; [6]) [µM],IC50 (PBP4) [µM],IC50 (PBP5) [µM],PBP inhibition at growth inhibitory concentrations (B. subtilis PBPs [2]),IC50 values for individual PBPs in DK694 (ΔpbpH) versus wild type (B. subtilis PBPs [3]),IC50 (PBP2a; [7]) [µM],"IC50 (PBP3 [1]; read-out: IC50 PBP3, B. subtilis PY79 whole cells, average of two experiments) [µM]","IC50 (PBP3 [1]; 50% inhibition of PBP3, concentration in μM, corresponding to 0.26 μg/mL) [µM]",concentration for complete inhibition of PBP3 (PBP3 [1]; B. subtilis whole cells),concentration for complete inhibition of PBP3 (PBP3 [1]; corresponding to 1 μg/mL) [µM],concentration for selective and complete inhibition of PBP5 (PBP5; B. subtilis whole cells),concentration for selective and complete inhibition of PBP5 (PBP5; corresponding to ~1 μg/mL) [µM],PBP inhibition after growth with sub-MIC concentration (B. subtilis PBPs [4]),MEM-BODIPY FL fluorescent signal upon pretreatment of the cells (PBP3 [5])
"CC1(C)S[C@@H]2[C@H](N)C(=O)N2[C@H]1C(=O)O [6-APA, 6-Aminopenicillanic acid]",8 to 256,> 4620,511,> 4620,≤ 50,> 4620,> 4620,19,failed to significantly block any PBPs,,,,,,,,,,
CC1(C)S[C@@H]2[C@H](NC(=O)[C@H](N)c3ccc(O)cc3)C(=O)N2[C@H]1C(=O)O [amoxicillin],4,0.00274,0.203,0.241,,0.383,0.208,3.04,,,,,,,,,,,
CC1(C)S[C@@H]2[C@H](NC(=O)[C@H](N)c3ccccc3)C(=O)N2[C@H]1C(=O)O [ampicillin],8,< 0.0286,0.0103,0.0269,,0.12,0.0106,0.343,,comparable and within twofold in most cases,,,,,,,,,
C[C@H]1[C@H](NC(=O)/C(=N\OC(C)(C)C(=O)O)c2csc(N)n2)C(=O)N1S(=O)(=O)O [aztreonam],16,,,,≤ 50,,,,,,,,,,,,,,
CO/N=C(\C(=O)N[C@@H]1C(=O)N2C(C(=O)O)=C(COC(C)=O)CS[C@H]12)c1csc(N)n1 [cefotaxime],0.0625,0.00285,,< 0.22,,2.17,< 0.22,> 2200,,,< 220,,,,,,,,
CO[C@@]1(NC(=O)Cc2cccs2)C(=O)N2C(C(=O)O)=C(COC(N)=O)CS[C@@H]21 [cefoxitin],1,0.0328,1.68,0.444,,2.43,0.0328,0.444,,,,,,,,,,,
NC(=O)c1cc[n+](CC2=C(C(=O)O)N3C(=O)[C@@H](NC(=O)[C@@H](c4ccccc4)S(=O)(=O)[O-])[C@H]3SC2)cc1 [cefsulodin],8,0.0184,71.4,1.24,,260,0.225,> 1880,,,,,,,,,,,
CO/N=C(\C(=O)N[C@@H]1C(=O)N2C(C(=O)O)=C(CSc3nc(=O)c(=O)[nH]n3C)CS[C@H]12)c1csc(N)n1 [ceftriaxone],0.25,0.0135,29.4,0.119,,4.69,0.0361,> 1800,,,,,,,,,,,
CO/N=C(\C(=O)N[C@@H]1C(=O)N2C(C(=O)O)=C(COC(N)=O)CS[C@H]12)c1ccco1 [cefuroxime],0.125,0.00424,65.7,0.189,,52.3,0.0353,> 2360,,,,,,,,,,,
CC1=C(C(=O)O)N2C(=O)[C@@H](NC(=O)[C@H](N)c3ccccc3)[C@H]2SC1 [cephalexin],0.5,> 2880,< 0.288,< 0.288,,69.4,732,> 2880,,,,,,,,,,,
CC(=O)OCC1=C(C(=O)O)N2C(=O)[C@@H](NC(=O)Cc3cccs3)[C@H]2SC1 [cephalothin],0.0312,0.00656,0.0164,0.0192,,29.8,0.0151,273,,,,,,,,,,,
Cc1onc(-c2ccccc2Cl)c1C(=O)N[C@@H]1C(=O)N2[C@@H]1SC(C)(C)[C@@H]2C(=O)O [cloxacillin],0.125,> 2290,0.206,0.298,≤ 50,,0.0505,> 2290,,,,< 2290,,,,,,,
C[C@@H](O)[C@H]1C(=O)N2C(C(=O)O)=C(S[C@@H]3CN[C@H](CNS(N)(=O)=O)C3)[C@H](C)[C@H]12 [doripenem],0.0625,> 2380,,,,0.285,> 2380,0.547,,,< 2380,,,,,,,,
C[C@@H](O)[C@H]1C(=O)N2C(C(=O)O)=C([C@H]3CCCO3)S[C@H]12 [faropenem],0.125,0.00207,0.0386,0.0179,,3.29,0.0315,0.701,,,,,,,,,,,
CC1(C)S[C@@H]2[C@H](/N=C/N3CCCCCC3)C(=O)N2[C@H]1C(=O)O [mecillinam],16,> 3070,20.6,3.29,,275,> 3070,> 3070,,,,,,,,,,,
C[C@@H](O)[C@H]1C(=O)N2C(C(=O)O)=C(S[C@@H]3CN[C@H](C(=O)N(C)C)C3)[C@H](C)[C@H]12 [meropenem],0.0625,> 2610,,,≤ 50,0.678,≥ 2610,0.574,,,< 2610,,0.67,~ 1 μg/mL and 1 μg/mL,2.6,~ 1 μg/mL,2.6,No significant inhibition,significantly reduced
COc1cccc(OC)c1C(=O)N[C@@H]1C(=O)N2[C@@H]1SC(C)(C)[C@@H]2C(=O)O [methicillin],0.25,> 2630,< 0.0263,< 0.263,,23.7,0.289,391,,comparable and within twofold in most cases,,,,,,,,,
Cc1onc(-c2ccccc2)c1C(=O)N[C@@H]1C(=O)N2[C@@H]1SC(C)(C)[C@@H]2C(=O)O [oxacillin],0.25,> 2490,0.139,0.152,≤ 50,166,< 0.249,> 2490,,,,,,,,,,,
CC1(C)S[C@@H]2[C@H](NC(=O)Cc3ccccc3)C(=O)N2[C@H]1C(=O)O [penicillin G],16,> 2990,0.0129,0.0568,,4.19,0.0269,,,,,,,,,,,,
CC1(C)S[C@@H]2[C@H](NC(=O)COc3ccccc3)C(=O)N2[C@H]1C(=O)O [penicillin V],32,< 0.0285,0.0012,< 0.0285,,5.82,< 0.0285,1.77,,,,,,,,,,,
CCN1CCN(C(=O)N[C@@H](C(=O)N[C@@H]2C(=O)N3[C@@H]2SC(C)(C)[C@@H]3C(=O)O)c2ccccc2)C(=O)C1=O [piperacillin],64,0.00232,0.309,< 1.93,,3.67,0.058,21.8,,,,,,,,,,,
